Values joined by “and” are separate entries in the source; they are usually repeats but may differ in a detail not shown here. Equal values may be shown once. “Also recorded” adds a separate entry of the source.
Assays:
[1] = test system: Ventricular embryonic chick cardiomyocytes; test: Cell death (propidium iodide viability assay) after simulated ischemia/reperfusion; type: cell-based
Description: Ventricular embryonic chick cardiomyocytes were prepared according to published procedure. […] Coverslips were checked for non-muscle cell contamination.
(§1) Coverslips with contracting cells were placed in a 1.2 mL Sykes-Moore perfusion chamber (Bellco Glass Inc., Vineland, N.J.). The chamber and inflow tubing were maintained at 37° C. Perfusate was supplied to the chamber (0.25 ml/min) via stainless steel tubing to minimize diffusive entry of ambient O2.
Cell viability was assessed with the fluorochrome propidium iodide (PI) (5 μM, Molecular Probes, Eugene, Oreg.). PI is excluded from viable cells, but enters cells and binds to chromatin after loss of cell membrane integrity. The cells then become highly fluorescent (excitation wavelength of 540 nm and a 590 nm band pass emission filter). PI was used to quantify cell death throughout the entire time of each experiment. […] All cells in the field studied were stained with PI at the end of the experiment by permeabilizing the cells with digitonin (300 μM). Percent cell death was then calculated as the PI fluorescence at any given time point relative to the maximal fluorescence value seen after digitonin exposure.
(§2) For each experiment a field of about 500 cells was observed. Treatment and control groups were matched in sets containing cells isolated and cultured on the same day so as to eliminate variability due to cell batch. Additional 25 mm coverslips were used for replicate experiments (“n”). Results are reported as means plus or minus S.E.M. and two-tailed unpaired t-tests comparing similar time points throughout ischemia and reperfusion were used as tests of significance, with p<0.05 considered to be significant.

[2] = test system: Ventricular embryonic chick cardiomyocytes; test: Return of synchronous cell contraction after simulated ischemia/reperfusion; type: cell-based; conditions: for return of contractions (groups with return/total): no return in control cells
Description: (§3) Ventricular embryonic chick cardiomyocytes were prepared according to published procedure. (Vanden Hoek T L, Becker L B, Shao Z, et al. Reactive oxygen species released from mitochondria during brief hypoxia induce preconditioning in cardiomyocytes, J. Biol. Chem. […]; 273:18092-18098, which is incorporated herein by reference). 10-day old chicken embryo hearts were removed, ventricular tissue minced into 0.5 mm fragments, enzymatically dispersed with 0.025% trypsin (Life Technologies, New York, N.Y.), centrifuged, 0.7×10^6 cells were pipetted onto 25 mm coverslips, and incubated with 5% CO2. Coverslips were checked for non-muscle cell contamination. Experiments were performed with 3-5 day cardiac cell cultures, by which time a synchronously contracting layer of cells could be visualized and viability exceeded 95%.
(§4) Normoxic perfusate used for baseline conditions and for reperfusion subsequent to ischemia contained oxygenated balanced salt solution (BSS) with a PO2 OF 149 torr, PCO2 of 40 torr, pH of 7.4, and [K]^+ of 4.0 mEq/L, and glucose (5.6 mM). To simulate ischemia, the perfusate contained BSS with 2-deoxyglucose (2-DOG) (20 mM) rather than glucose and [K]^+ of 8.0 mEq/L. The ischemic perfusate was equilibrated with 80% N2 and 20% CO2 prior to use to produce a PO2 of ˜5 torr, a PCO2 of 144 torr and a final pH of 6.8.
Contractions were assessed by monitoring synchronous movement within the same field of cells as previously reported. A return of contraction following simulated ischemia/reperfusion was indicated when contractions could be seen throughout the field of cells following the three hour period of reperfusion.

[3] = test system: mitochondrial respiration; test: Decrease of mitochondrial respiration; conditions: dose administered to achieve protection
[4] = test system: reactive oxygen species (ROS) in embryonic chick cardiomyocytes; test: Intracellular ROS (DCF fluorescence) at reperfusion after simulated ischemia; type: cell-based; conditions: for maximal DCF fluorescence intensity: control 2.8±0.2 a.u.
Description: as §3, §1, §4
Intracellular oxidant stress due to ROS was monitored real time with the intracellular probe 2′,7′-dichlorofluorescin diacetate (DCFH-DA, 5 μM, Molecular Probes, Eugene, Oreg.) as described in published literature (Vanden Hoek, F L, et al., Reactive oxygen species released from mitochondria during brief hypoxia induce preconditioning in cardiomyocytes, J. Biol. Chem. […]; 273:18092-18098, which is incorporated by reference herein; Vanden Hoek, T L, et al, Preconditioning in cardiomyocytes protects by attenuating oxidant stress at reperfusion, Circ Res 2000; 86:534-540, which is incorporated by reference herein; Vanden Hoek, T L, Reperfusion, not simulated ischemia initiates intrinsic apoptosis injury in chick cardiomyocytes Am J. Physiol Heart Physiol 2003; 284:H141-150, which is incorporated by reference herein). DCFH-DA is cleaved by cellular esterases upon entry into the cells, trapping the nonfluorescent 2′,7′-dichlorofluorescin (DCFH) inside. ROS, particularly hydrogen peroxide (H2O2) and hydroxyl radical generate the fluorescent product dichlorofluorescein (DCF) by causing the oxidation of DCFH. Increases in DCF fluorescence result from DCFH oxidation to DCF. DCF fluorescence was measured at an excitation wavelength of 480 nm, and a 520 nm band pass emission filter. Attention was focused on the maximal DCF fluorescence intensity value during the first minutes of reperfusion for comparison. All measurements were expressed in arbitrary units (a.u.) of fluorescence.
as §2

[5] = test system: nitric oxide (NO) generation in embryonic chick cardiomyocytes; test: NO generation (DAF-2 fluorescence) during ischemia/reperfusion; type: cell-based; conditions: L-NAME 200 μM during I/R, n=8
Description: as §3, with “al:” for “al.”, “0.25%” for “0.025%”, “95%. […]” for “95%.”
Endogenous NO generation has been implicated to have both protective and detrimental roles in various in vitro and in vivo models of I/R injury. To test whether endogenous NO was affected by hypocarbic or hypercarbic reperfusion, we continuously monitored the entire course of I/R using the NO indicator DAF-2 DA of cells treated as described in Example 2.
Cells were treated as described in Example 11, and the NO profile and cell viability was assessed in hypercarbic reperfusion compared with hypercarbic reperfusion with 200 μM L-NAME incubated during I/R as described above.

[6] = test system: reactive oxygen species (ROS) in embryonic chick cardiomyocytes; test: ROS (DCF fluorescence) during hypocarbic/normocarbic/hypercarbic reperfusion; type: cell-based; conditions: apocynin 300 μM during reperfusion
Description: as §3, with “al:” for “al.”, “0.25%” for “0.025%”
To simulate ischemia, the perfusate contained BSS with 2-deoxyglucose (2-DOG) (20 mM) rather than glucose, 18 mM NaCO3 and [K]^+ of 8.0 mEq/L, and was equilibrated with 80% N2 and 20% CO2 to produce a final PO2 of 3-5 torr, PCO2 of 144 torr, and pH 6.8. In addition, 20 mM of glycolytic inhibition 2-deoxyglucose was added to better model adenosine triphosphate depletion.
For perfusion, three perfusate solutions were used: normocarbic reperfusion perfusate, hypocarbic reperfusion perfusate and hypercarbic reperfusion perfusate. […]

[7] = 20 μM NADH isomer at reperfusion

With `O=C(O)c1ccc2cc3ccccc3cc2c1` [2-anthracene-carboxylic acid] the “I/R induced cell death” value ([1]; 0.1 μM, first 10 minutes of reperfusion, control 47.1±3.0%, n=5) was 26.1±4.0%, the cell death ([1]; 1 μM as printed in Example 4, first 10 minutes of reperfusion, control 47.1±3.0%, n=5) was 26.1±4.0% and the “return of synchronous contractions (groups with return/total)” value ([2]; 0.1 μM, first 10 minutes of reperfusion, control 0/7) was 5/5. The “decrease of mitochondrial respiration” value [3] was 10-15% and the “maximal DCF fluorescence intensity” value ([4]; 0.1 μM, first 10 minutes of reperfusion, n=3) was 1.7±0.1 a.u.
With `CCN(CC)C(=S)S` [DDC, diethyldithiocarbamic acid] the “I/R induced cell death” value ([1]; DDC 1 mM during reperfusion, control 49.7±6.7%, n=5) was 15.7±4.7% and the “maximal DCF fluorescence intensity” value ([4]; DDC 1 mM during simulated ischemia and first 15-30 min of reperfusion, n=5) was 1.6±0.1 a.u.
In the case of `COC(=O)[C@@H](N)CCCNC(=N)N[N+](=O)[O-]` [L-NAME, N^G-nitro-L-arginine methyl ester], the “NO generation (DAF-2 fluorescence) during hypercarbic reperfusion” value [5] is reported as “blocked maintenance of the sustained NO levels; also recorded: reduction of the sustained increase of NO generation”.
In the case of `COc1cc(C(C)=O)ccc1O` [apocynin], the “ROS burst (DCF fluorescence) in hypocarbic reperfusion” value ([6]; hypocarbic) is reported as “did not attenuate the reperfusion ROS burst; also recorded: increased the ROS burst” and the “ROS burst (DCF fluorescence) in normocarbic reperfusion” value ([6]; normocarbic) is reported as “did not attenuate the reperfusion ROS burst; also recorded: increased the ROS burst”.
In the case of `C=C(C)[C@H]1Cc2c(ccc3c2O[C@@H]2COc4cc(OC)c(OC)cc4[C@@H]2C3=O)O1` [rotenone], the “protection against I/R injury (cell protection)” value ([1]; all tested doses of rotenone, including nanomolar doses for first 15 minutes of reperfusion) is reported as “no tested dose of rotenone conferred cell protection”, the cell death ([1]; rotenone 100 nM, first 15 minutes of reperfusion, control 50.2±3.0%, n=3) is reported as 61.3±1.6% and the cell death ([1]; rotenone 1 μM, first 15 minutes of reperfusion, control 50.2±3.0%, n=3) is reported as 77.4±6.6% and 77.1±6.6%. For the same molecule, the cell death ([1]; rotenone 10 μM, first 15 minutes of reperfusion, control 50.2±3.0%, n=3) was 66.1±3.4% and 66.2±3.4% and the “maximal peak DCF fluorescence intensity (reperfusion ROS)” value ([4]; rotenone 5 μM (representative of all doses), control 2.4±0.3 a.u., n=5) was 0.7±0.1 a.u.
In the case of `C/C=C(C)/C=C/C=C/[C@H](OC)[C@@H](C)[C@@H](OC)[C@@H](C)CCc1oc2c(O)c(OC)cc(OC)c2c(=O)c1C` [stigmatellin], the cell death ([1]; stigmatellin 20 nM, first 15 minutes of reperfusion, control 50.2±3.0%, n=3) is reported as 20.3±5.0%, the cell death ([1]; stigmatellin 100 μM, 3 hours of reperfusion, control 50.2±3.0%, n=3) is reported as 80.1±6.0% and the cell death ([1]; stigmatellin 100 μM, first 15 minutes of reperfusion, control 50.2±3.0%, n=3) is reported as 52.3±3.0%. For the same molecule, the I/R cell death ([1]; stigmatellin 2-20 nM, first 15 min of reperfusion, control 53.8±3.5%, n=5) was 10.8±2.9%, the “return of contractions (groups with return/total)” value ([2]; stigmatellin 2-20 nM, first 15 minutes of reperfusion) was 5/5 and the “reperfusion ROS” value ([4]; stigmatellin 100 μM, first 15 min of reperfusion) was “ROS was abrogated”. For the same molecule, the “maximal peak DCF fluorescence intensity” value ([4]; stigmatellin 2-20 nM, first 15 min of reperfusion, control 2.4±0.3 a.u., n=5) was 0.46±0.02 a.u and the “reperfusion ROS” value ([4]; stigmatellin given during the whole 3 hour course of reperfusion) was “ROS was attenuated”.
With `NC(=O)C1=CN([C@H]2O[C@H](COP(=O)(O)OP(=O)(O)OC[C@H]3O[C@@H](n4cnc5c(N)ncnc54)[C@H](O)[C@@H]3O)[C@@H](O)[C@H]2O)C=CC1` [α-NADH] the I/R cell death ([1]; exogenous α-NADH 20 μM, control 47.1±3.0%, n=5) was 13.8±1.3%, the “return of contractions (groups with return/total)” value [2, 7] was 5/5 and the “effect on β-NADH induced increase in ROS” value ([4]; α-NADH 20 μM co-treated with β-NADH 20 μM) was “blocked this increase in ROS; also recorded: reversal of the increase was observed”.
With `NC(=O)C1=CN([C@@H]2O[C@H](COP(=O)(O)OP(=O)(O)OC[C@H]3O[C@@H](n4cnc5c(N)ncnc54)[C@H](O)[C@@H]3O)[C@@H](O)[C@H]2O)C=CC1` [β-NADH] the “I/R cell death versus control” value ([1]; exogenous β-NADH 20 μM, first 10 minutes of reperfusion) was “showed no benefit”, the “return of contractions (groups with return/total)” value [2, 7] was “absence of contractile return” and the “percent increase in ROS generation during reperfusion over ischemia” value ([4]; exogenous β-NADH 20 μM, first 10 minutes of reperfusion, control 86.2±19.6%, n=8) was 511±123%.

From patent US20090110673A1, “METHODS OF REDUCING CELL DEATH FOLLOWING HYPOXIA / REOXYGENATION” (THE UNIVERSITY OF CHICAGO, priority 2006, published 2009)
